From US10537652B2, “Cyclic urea compounds as granzyme B inhibitors” (viDA Therapeutics Inc., priority 2014, dated 2020)

Molecular target: T1, GzmB (Homo sapiens, UniProt P10144)
T1 construct: purchased Froelich Lab, Northshore University Health Systems Research Institute, Evanston, Ill., USA
Test: Inhibition of Fibronectin Cleavage by GzmB (Example D7)
Assay type: biochemical
Conditions: 20 nM granzyme B, 30° C.; for inhibition at 0.62 µM: inhibitor 0.62 uM, read-out: Percent Inhibition at Inhibitor Concentration 0.62 uM; for inhibition at 5.56 µM: inhibitor 5.56 uM, read-out: Percent Inhibition at Inhibitor Concentration 5.56 uM; for inhibition at 50 µM: inhibitor 50 uM, read-out: Percent Inhibition at Inhibitor Concentration 50 uM
Procedure: Black, 96 well high-binding assay plates (Griener Bio-one) were treated overnight at 4° C. with 40 uL of 8 ug/mL Hilyte Fluor 488 labeled Fibronectin (Cytoskeleton, Inc). After fibronectin coating, plates were washed 3 times in buffer (20 mM Tris-HCl, pH 7.4, 20 mM NaCl) then once with granzyme B assay buffer (50 mM HEPES, pH 7.5, 0.1% CHAPS). After washing, 50 uL of granzyme B assay buffer was added to each fibronectin-coated well. In a separate non-binding 96 well assay plate 5 uL of 20X inhibitor serial dilution stocks were added to 45 uL of 2.22x GzmB mix to establish inhibition (enzyme/inhibitor mixes were all prepared in granzyme B assay buffer and were incubated first at room temperature for 20 minutes, then at 30° C. for another 10 minutes). After incubation, 50 uL of this 2x enzyme/inhibitor mix was added to the corresponding coated well to initiate fibronectin cleavage (20 nM final granzyme B concentration, 8-point inhibitor dilution series starting at 50 uM). The assay was conducted at 30° C. in the TECAN plate reader (TECAN INFINITE® M1000 Pro), which was programmed to monitor the kinetic fluorescence polarization signal (filter set Ex/Em 470 nm/527 nm) with readings taken every minute, for 1 hour. Proteolytic activity was evaluated as the rate of fluorescence enhancement in the parallel emission over the linear range of the reaction. % Inhibition values were calculated from assay controls and the resulting data is shown in Table 6.

T1 sequence (P10144 21-247): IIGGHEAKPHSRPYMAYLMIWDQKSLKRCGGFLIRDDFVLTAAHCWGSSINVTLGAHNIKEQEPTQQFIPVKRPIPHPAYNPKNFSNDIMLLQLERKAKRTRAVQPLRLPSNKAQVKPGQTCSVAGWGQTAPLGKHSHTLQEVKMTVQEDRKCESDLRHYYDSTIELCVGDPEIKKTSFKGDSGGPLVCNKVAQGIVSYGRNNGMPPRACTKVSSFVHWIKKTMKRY

| SMILES | inhibition at 0.62 µM [%] | inhibition at 5.56 µM [%] | inhibition at 50 µM [%] |
| --- | --- | --- | --- |
| CC[C@H](C)[C@H](NC(=O)CCC(=O)O)C(=O)NCC(=O)N1C(=O)NC[C@H]1C(=O)NCc1nn[nH]n1 [Compound C1, 4-(((2S,3S)-1-((2-((S)-5-(((2H-tetrazol-5-yl)methyl)carbamoyl)-2-oxoimidazolidin-1-yl)-2-oxoethyl)amino)-3-methyl-1-oxopentan-2-yl)amino)-4-oxobutanoic acid] | 39 | 69 | 86 |
| CC[C@H](C)[C@H](NC(=O)CCC(=O)O)C(=O)NCC(=O)N1C(=O)N(C2CCCCC2)C[C@H]1C(=O)NCc1nn[nH]n1 [Compound C2, 4-(((2S,3S)-1-((2-((S)-5-(((2H-TETRAZOL-5-YL)METHYL)CARBAMOYL)-3-CYCLOHEXYL-2-OXOIMIDAZOLIDIN-1-YL)-2-OXOETHYL)AMINO)-3-METHYL-1-OXOPENTAN-2-YL)AMINO)-4-OXOBUTANOIC ACID] | 75 | 91 | 96 |
